In patent publication US6413911B1, “Herbicidal sulfonylureas, their preparation and use” (BASF Aktiengesellschaft, priority 1992, dated 2002):

Legend:
[1] = system: Amaranthus retroflexus; assay: greenhouse test, post-emergence herbicidal activity; format: in vivo; conditions: scale 0-100, Table I
Description: (§1) The cultivation containers used were plastic flowerpots containing loamy sand with about 3.0% humus as a substrate. The seeds of the test plants were sown separately according to species. For the purpose of post-emergence treatment, the test plants were first raised, depending on growth form, to a growth height of from 4 to 15 cm and only then treated with the active compounds suspended or emulsified in water. To do this, the test plants were either directly sown and raised in the same containers or they were first raised separately as seed plants and transplanted into the test containers a few days before the treatment. The application rate for post-emergence treatment was 0.06 kg/ha of a.s. (active substance). The plants were kept in a species-specific manner at 10-25° C. or 20-35° C. The test period extended over 2 to 4 weeks. During this time the plants were tended and their reaction to the individual treatments was assessed. Assessment was carried out on a scale of from 0 to 100. 100 here means no germination of the plants or complete destruction of at least the above-ground parts and 0 means no damage or normal course of growth. Comparison of the herbicidal activity of the exemplary compound No. 1.03 with the known comparison compound B on post-emergence application of 0.0313 or 0.0156 kg/ha of a.s. respectively in the greenhouse.

[2] = system: Veronica spp.; assay: as above; format: in vivo; conditions: scale 0-100, Table I
Description: as §1

[3] = system: Solanum nigrum; assay: as above; format: in vivo; conditions: scale 0-100, Table I
Description: as §1

[4] = system: Polygonum persicaria; assay: as above; format: in vivo; conditions: scale 0-100, Table I
Description: as §1

[5] = system: Sinapis alba; assay: as above; format: in vivo
Description: as §1, with “greenhouse. Comparison of the herbicidal activity of the exemplary compound No. 3.01 with the known comparison compound H on post-emergence application of 0.063 or 0.0313 kg/ha of a.s. respectively in the greenhouse.” for “greenhouse.”

[6] = system: Galium aparine; assay: as above; format: in vivo
Description: as §1, with “greenhouse. Comparison of the herbicidal activity of the exemplary compound No. 3.01 with the known comparison compound H on post-emergence application of 0.063 or 0.0313 kg/ha of a.s. respectively in the greenhouse.” for “greenhouse.”

[7] = system: maize; assay: greenhouse test, post-emergence selectivity in crop plant maize; format: in vivo, Zea mays; conditions: 0.06 kg/ha of a.s. post-emergence
Description: as §1, with “The plants used in the greenhouse tests were composed” for “Comparison”, “following species: [table]” for “herbicidal activity of the exemplary compound No. 1.03 with the known comparison compound B on post-emergence application of 0.0313 or 0.0156 kg/ha of a.s. respectively in the greenhouse.”

[8] = system: broad-leaved undesired plants; assay: greenhouse test, post-emergence control of broad-leaved undesired plants; format: in vivo, Abutilon theophrasti; Sinapis alba; conditions: 0.06 kg/ha of a.s. post-emergence
Description: as §1, with “The plants used in the greenhouse tests were composed” for “Comparison”, “following species: [table]” for “herbicidal activity of the exemplary compound No. 1.03 with the known comparison compound B on post-emergence application of 0.0313 or 0.0156 kg/ha of a.s. respectively in the greenhouse.”

[9] = system: Ipoinea spp.; assay: greenhouse test, post-emergence herbicidal activity; format: in vivo; conditions: scale 0-100, Table II
Description: (§2) The cultivation containers used were plastic flowerpots containing loamy sand with about 3.0% humus as a substrate. The seeds of the test plants were sown separately according to species. For the purpose of post-emergence treatment, the test plants were first raised, depending on growth form, to a growth height of from 4 to 15 cm and only then treated with the active compounds suspended or emulsified in water. To do this, the test plants were either directly sown and raised in the same containers or they were first raised separately as seed plants and transplanted into the test containers a few days before the treatment. The application rate for post-emergence treatment was 0.06 kg/ha of a.s. (active substance). The plants were kept in a species-specific manner at 10-25° C. or 20-35° C. The test period extended over 2 to 4 weeks. During this time the plants were tended and their reaction to the individual treatments was assessed. Assessment was carried out on a scale of from 0 to 100. 100 here means no germination of the plants or complete destruction of at least the above-ground parts and 0 means no damage or normal course of growth. Comparison of the herbicidal activity of the exemplary compound No. 3.01 with the known comparison compound H on post-emergence application of 0.063 or 0.0313 kg/ha of a.s. respectively in the greenhouse.

[10] = system: Alopecurus myosuroides; assay: as above; format: in vivo; conditions: scale 0-100, Table II
Description: as §2

[11] = system: Triticum aestivum; assay: greenhouse test, post-emergence damage to crop plant; format: in vivo; conditions: scale 0-100, Table II
Description: as §2

[12] = 0.0156 kg/ha of a.s., scale 0-100, Table I
[13] = 0.0313 kg/ha of a.s., scale 0-100, Table I
[14] = 0.0313 kg/ha of a.s., scale 0-100, Table II
[15] = 0.063 kg/ha of a.s., scale 0-100, Table II

COC(=O)c1ccccc1S(=O)(=O)NC(=O)Nc1nc(OC)nc(C(F)(F)Cl)n1 [Example 1.03]
Damage [%] ([1]; 0.0156 kg/ha of a.s.): 100%
Damage [%] ([1]; 0.0313 kg/ha of a.s.): 100%
Damage [%] ([2]; 0.0156 kg/ha of a.s.): 75%
Damage [%] ([2]; 0.0313 kg/ha of a.s.): 85%
Damage [%] ([3]; 0.0156 kg/ha of a.s.): 90%
Damage [%] ([3]; 0.0313 kg/ha of a.s.): 90%
Damage [%] ([4]; 0.0156 kg/ha of a.s.): 80%
Damage [%] ([4]; 0.0313 kg/ha of a.s.): 80%
Damage [%] [5, 12]: 90%
Damage [%] [5, 13]: 90%
Damage [%] [6, 12]: 75%
Damage [%] [6, 13]: 95%
selectivity in the exemplary crop plant maize [7]: outstanding selectivity
control of broad-leaved undesired plants [8]: very well controlled

COc1nc(NC(=O)NS(=O)(=O)c2ccccc2C(F)(F)F)nc(C(F)F)n1 [Example 3.01]
Damage [%] [5, 14]: 98%
Damage [%] [5, 15]: 98%
Damage [%] [6, 14]: 95%
Damage [%] [6, 15]: 95%
Damage [%] ([9]; 0.0313 kg/ha of a.s.): 90%
Damage [%] ([9]; 0.063 kg/ha of a.s.): 98%
Damage [%] ([10]; 0.0313 kg/ha of a.s.): 98%
Damage [%] ([10]; 0.063 kg/ha of a.s.): 98%
Damage [%] ([11]; 0.0313 kg/ha of a.s.): 0%
Damage [%] ([11]; 0.063 kg/ha of a.s.): 0%
